Results from US20240158446A1, “CYCLIC COMPOUND HAVING SELECTIVE INHIBITORY ACTION ON KRAS OVER HRAS AND NRAS” (CHUGAI SEIYAKU KABUSHIKI KAISHA, priority 2021, published 2024).
Like-named read-outs stand apart in the source and are kept apart here.

Tested on: human lung cancer strain NCI-H441
[1] = read-out: NCI-H441 IC50, NCI-H441 cells, four days, CellTiter-Glo
[2] = read-out: NCI-H441 cell proliferation inhibitory activity, 50% proliferation inhibitory concentration (IC50 value), NCI-H441, four days, CellTiter-Glo

| SMILES | IC50 [nM] | IC50 [1] [nM] | also measured |
| --- | --- | --- | --- |
| CCO[C@@H]1C[C@H]2C(=O)NC3(CCC3)C(=O)N(C)[C@@H](C3CCCC3)C(=O)N(C)[C@H](CC)CC(=O)N(C)[C@@H](CC3CC3)C(=O)N[C@@H]([C@@H](C)CC)C(=O)N(C)CC(=O)N(C)[C@H]3C/C=C\CCN(C3=O)C(Cc3ccc(C(F)(F)F)cc3)C(=O)N(C)CC(=O)N[C@@H](CCc3cc(F)c(C(F)(F)F)c(F)c3)C(=O)N2C1 (stereo partly drawn) [PP1631] |  |  | IC50 (read-out: NCI-H441 IC50, NCI-H441 cell proliferation, 4 days, CellTiter-Glo): 17.6 nM |
| CCO[C@@H]1C[C@H]2C(=O)NC3(CC(C)(C)C3)C(=O)N(C)[C@@H](C(CC)CC)C(=O)N(C)[C@H](C(=O)N3CCCCC3)CC(=O)N(C)[C@H]3CCC/C=C/c4ccc(cc4)C[C@@H](C(=O)N(C)CC(=O)N[C@@H](CCc4ccc(Cl)c(Cl)c4)C(=O)N2C1)N1CC/C=C\C[C@@H](C1=O)N(C)C(=O)CN(C)C(=O)[C@H]([C@@H](C)CC)NC3=O [PP2953] |  | 33.4 |  |
| CCO[C@@H]1C[C@H]2C(=O)NC3(CCC3)C(=O)N(C)[C@@H](C3CCCC3)C(=O)N(C)[C@H](C(=O)N3CCCCC3)CC(=O)N(C)[C@H]3CCC/C=C/c4ccc(cc4)C[C@@H](C(=O)N(C)CC(=O)N[C@@H](CCc4ccc(Cl)c(Cl)c4)C(=O)N2C1)N1CC/C=C\C[C@@H](C1=O)N(C)C(=O)CN(C1CC1)C(=O)[C@H]([C@@H](C)CC)NC3=O [PP2958] |  | 19.5 |  |
| CCO[C@@H]1C[C@H]2C(=O)NC3(CCC3)C(=O)N(C)[C@@H](C(CC)CC)C(=O)N(C)[C@H](C(=O)N3CCCCC3)CC(=O)N(C)[C@H]3CCC/C=C/c4ccc(cc4)C[C@@H](C(=O)N(C)CC(=O)N[C@@H](CCc4ccc(Cl)c(Cl)c4)C(=O)N2C1)N1CC/C=C\C[C@@H](C1=O)N(C)C(=O)CN(C1CC1)C(=O)[C@H]([C@@H](C)CC)NC3=O [PP3039] |  | 18 |  |
| CCCO[C@@H]1C[C@H]2C(=O)NC3(CC(C)(C)C3)C(=O)N(C)[C@@H](C3CCCC3)C(=O)N(C)[C@H](C(=O)N(C)C)CC(=O)N(C)[C@H]3CCCCc4ccc(cc4)C[C@@H](C(=O)N(C)CC(=O)N[C@@H](CCc4ccc(C(F)(F)F)c(OC)c4)C(=O)N2C1)N1CC/C=C\C[C@@H](C1=O)N(C)C(=O)CN(C1CC1)C(=O)[C@H]([C@@H](C)CC)NC3=O [PP3082] |  |  | IC50 [2]: 1.7 nM |
| CCC[C@H]1C(=O)N[C@@H]([C@@H](C)CC)C(=O)N(C2CC2)CC(=O)N(C)[C@H]2C/C=C\CCN(C2=O)[C@@H](Cc2ccc(C)cc2)C(=O)N(C)CC(=O)N[C@@H](CCc2ccc(C(F)(F)F)c(OC)c2)C(=O)N2C[C@H](OCC)C[C@H]2C(=O)N(C)C2(CCC2)C(=O)N(C)[C@@H](C2CCCC2)C(=O)N(C)[C@H](C(=O)N2CCCCC2)CC(=O)N1C [PP3096, (2S,8S,12R,14S,20S,23S,27S,30S,36S,38Z)-20-cyclopentyl-32-cyclopropyl-12-ethoxy-8-[2-[3-methoxy-4-(trifluoromethyl)phenyl]ethyl]-4,16,19,22,26,35-hexamethyl-30-[(1S)-1-methylpropyl]-23-(piperidine-1-carbonyl)-27-propyl-2-(p-tolylmethyl)spiro[1,4,7,10,16,19,2226293235-undecazatricyclo[34.5.1.0^10,14]dotetracont-38-ene-17,1′-cyclobutane]-3,6,9,15,18,21,25,28,31,34,42-undecone] |  |  | IC50 [2]: 35.8 nM |

Further lines, with some results ahead:

| IC50 [nM] | SMILES | IC50 [1] [nM] | also measured |
| --- | --- | --- | --- |
| 71.9 | CCCOC[C@H]1C(=O)N[C@@H]([C@@H](C)OCC)C(=O)N(C)CC(=O)N(C)[C@H]2C/C=C\CCN(C2=O)[C@@H](Cc2ccc(C)cc2)C(=O)N(C)CC(=O)N[C@@H](CCc2ccc(C(F)(F)F)c(OC)c2)C(=O)N2C[C@@H](C)C[C@H]2C(=O)NC2(CC(C)(C)C2)C(=O)N(C)[C@@H](C2CCCC2)C(=O)N(C)[C@H](C(=O)N(C)CC)CC(=O)N1C [PP2423] |  |  |
| 33.4 | CC[C@H](C)[C@@H]1NC(=O)[C@H](COC)N(C)C(=O)C[C@@H](C(=O)N(C)C)N(C)C(=O)[C@H](C2CCCC2)N(C)C(=O)C2(CC(C)(C)C2)NC(=O)[C@@H]2C[C@@H](OC3CCCC3)CN2C(=O)[C@H](CCc2cc(F)c(C(F)(F)F)c(F)c2)NC(=O)CN(C)C(=O)[C@H](Cc2ccc(C)cc2)N2CC/C=C\C[C@@H](C2=O)N(C)C(=O)CN(C2CC2)C1=O [PP2626] |  |  |
| 2.9 | CCO[C@@H]1C[C@H]2C(=O)NC3(CC(C)(C)C3)C(=O)N(C)[C@@H](C3CCCC3)C(=O)N(C)[C@H](C(=O)N(C)C)CC(=O)N(C)[C@@H](CC(C)C)C(=O)N[C@@H]([C@@H](C)CC)C(=O)N(C)CC(=O)N(C)[C@H]3C/C=C\CCN(C3=O)[C@@H](Cc3ccc(CC)cc3)C(=O)N(C)CC(=O)N[C@@H](CCc3ccc(C(F)(F)F)c(OC)c3)C(=O)N2C1 [PP2687, (2S,8S,12R,14S,20S,23S,27S,30S,36S,38Z)-20-cyclopentyl-12-ethoxy-2-[(4-ethylphenyl)methyl]-27-isobutyl-8-[2-[3-methoxy-4-(trifluoromethyl)phenyl]ethyl]-N,N,3′,3′,4,19,22,26,32,35-decamethyl-30-[(1S)-1-methylpropyl]-3,6,9,15,18,21,25,28,31,34,42-undecaoxo-spiro[1,4,7,10,16,19,22,26,29,32,35-undecazatricyclo[34.5.1.0^10,14]dotetracont-38-ene-17,1′-cyclobutane]-23-carboxamide] |  |  |
